Like-named read-outs stand apart in the source and are kept apart here. Positions of bridges follow the written chain, without caps; N, C: chain ends. Residues, ends and D or L forms follow the SMILES beside them. Chains are numbered I, II in the order given. *: point of attachment. X5 = Cc1cc(NC(=O)CCC(=O)O)ccc1-c1cc(CN2CCN(CC(=O)O)CCN(CC(=O)O)CCN(CC(=O)O)CC2)nc(C(=O)*)c1; X2 = CC(=O)Nc1ccc(-c2cc(CN3CCN(CC(=O)O)CCN(CC(=O)O)CCN(CC(=O)O)CC3)nc(C(=O)*)c2)c(C)c1; X4 = Cc1cc(NC(=O)CCN)ccc1-c1cc(CN2CCN(CC(=O)O)CCN(CC(=O)O)CCN(CC(=O)O)CC2)nc(C(=O)*)c1; X1 = CC(=O)Nc1ccc(-c2cc(CN3CCN(CC(=O)O)CCN(CC(=O)O)CCN(CC(=O)O)CC3)nc(C(=O)*)c2)cc1; X3 = COc1ccc(-c2cc(CN3CCN(CC(=O)O)CCN(CC(=O)O)CCN(CC(=O)O)CC3)nc(C(=O)*)c2)c(C)c1
How the values were obtained:
HeLa cells [1] = assay: MTT proliferation assay (cytotoxicity)
HeLa cells [2] = assay: Two-photon microscopy (2PM) imaging of live cells: internalization and cytosolic delivery; format: cell-based; settings: for cytosolic delivery (diffuse Ln3+ emission): 10 μM; for cytosolic delivery (diffuse Ln3+ emission) / co-internalization of a Tb3+/Eu3+ probe mixture: 2P excitation 720 nm; for co-internalization of a Tb3+/Eu3+ probe mixture: 1 h, Tb probe 10 μM + dTAT[Eu·L-Ar-NHAc] 5 μM
MRC5 cells = assay: as above; format: cell-based; settings: 1 h, 10 μM
Method: (§1) Fig. 7 2PM imaging (λex = 720 nm) of living HEK293T (A) and MRC5 (B) cells incubated 1 h with dTAT[Eu·L-Ar-NHAc] (10 μM) in RPMI medium. Top: DIC, emission recorded using a 465–680 nm bp filter and merge; Bottom: linear unmixing of autofluorescence (AF) and Eu^3+ emission and merge. Scale bars correspond to 10 μm. […]
(§2) dependence for each sample (Fig. S9), the incident power was adjusted to 35 mW to characterize the two-photon absorption spectra. Calibration of the 2P absorption spectra was performed at each excitation wavelength by comparison with that of fluorescein (10 µM, pH 11) as reference compound.[12]
(§3) General: HeLa, MRC5 and HEK293 cell lines were purchased from the ATCC and agreed by French ethic boards […]
(§4) Cell culture: HeLa cells were grown in RPMI medium supplemented with 10% fetal bovine serum (v/v) at 37°C in a 5% CO2 humidified atmosphere.
(§5) Peptides delivery in live cells: HeLa cells were seeded at 3´10^4 cells/well onto an 8-chamber Labtek-I coverglass system.
(§6) After 24 h, cells were washed three times with PBS. Cells were incubated with dTAT [Ln·L] (10 µM) in RPMI medium (without phenol red and without serum) or PBS at 37°C for 1 h. […]
(§7) Temporal Sampling Lifetime Imaging Microscopy (TSLIM) was used to record luminescence lifetime decay in cells (single pulsed excitation with the 7.56 μs temporal resolution).[13] […]

HEK293T cells = assay: as above; format: cell-based; settings: 1 h, 10 μM
Method: as §1, §2, §3, §4, §5, §6, §7

[3] = read-out: IC50 (concentration causing a 50% reduction in proliferation), MTT proliferation assay, 2 h incubation
[4] = live HeLa cells, 1 h incubation

SMILES	IC50 (HeLa cells [1]; [3]) [µM]	cytosolic delivery (diffuse Ln3+ emission) (HeLa cells [2]; [4])	co-internalization of a Tb3+/Eu3+ probe mixture (HeLa cells [2]; HeLa cells)	other results
CC(=O)Nc1ccc(-c2cc(CN3CCN(CC(=O)O)CCN(CC(=O)O)CCN(CC(=O)O)CC3)nc(C(=O)NCCCC[C@H](NC(=O)[C@@H](N)CSSC[C@H](N)C(=O)N[C@@H](CCCCNC(=O)c3cc(-c4ccc(NC(C)=O)cc4C)cc(CN4CCN(CC(=O)O)CCN(CC(=O)O)CCN(CC(=O)O)CC4)n3)C(=O)N[C@@H](CCCNC(=N)N)C(=O)N[C@@H](CCCCN)C(=O)N[C@@H](CCCCN)C(=O)N[C@@H](CCCNC(=N)N)C(=O)N[C@@H](CCCNC(=N)N)C(=O)N[C@@H](CCC(N)=O)C(=O)N[C@@H](CCCNC(=N)N)C(=O)N[C@@H](CCCNC(=N)N)C(=O)N[C@@H](CCCNC(=N)N)C(=O)NCC(N)=O)C(=O)N[C@@H](CCCNC(=N)N)C(=O)N[C@@H](CCCCN)C(=O)N[C@@H](CCCCN)C(=O)N[C@@H](CCCNC(=N)N)C(=O)N[C@@H](CCCNC(=N)N)C(=O)N[C@@H](CCC(N)=O)C(=O)N[C@@H](CCCNC(=N)N)C(=O)N[C@@H](CCCNC(=N)N)C(=O)N[C@@H](CCCNC(=N)N)C(=O)NCC(N)=O)c2)c(C)c1 [dTAT[Tb·L-^MeAr-NHAc]] (I: H-CK(X2)RKKRRQRRRG-NH2 / II: H-CK(X2)RKKRRQRRRG-NH2; disulfide I:1-II:1)	7.6 ± 1.6	cytosolic delivery	–	IC50 (HeLa cells [1]; read-out: IC50 (concentration causing a 50% reduction in proliferation), MTT proliferation assay, 2 h incubation, listed as dTAT[Tb·L-^MeAr-HNAc]): < 10 µM
Cc1cc(NC(=O)CCC(=O)O)ccc1-c1cc(CN2CCN(CC(=O)O)CCN(CC(=O)O)CCN(CC(=O)O)CC2)nc(C(=O)NCCCC[C@H](NC(=O)[C@@H](N)CSSC[C@H](N)C(=O)N[C@@H](CCCCNC(=O)c2cc(-c3ccc(NC(=O)CCC(=O)O)cc3C)cc(CN3CCN(CC(=O)O)CCN(CC(=O)O)CCN(CC(=O)O)CC3)n2)C(=O)N[C@@H](CCCNC(=N)N)C(=O)N[C@@H](CCCCN)C(=O)N[C@@H](CCCCN)C(=O)N[C@@H](CCCNC(=N)N)C(=O)N[C@@H](CCCNC(=N)N)C(=O)N[C@@H](CCC(N)=O)C(=O)N[C@@H](CCCNC(=N)N)C(=O)N[C@@H](CCCNC(=N)N)C(=O)N[C@@H](CCCNC(=N)N)C(=O)NCC(N)=O)C(=O)N[C@@H](CCCNC(=N)N)C(=O)N[C@@H](CCCCN)C(=O)N[C@@H](CCCCN)C(=O)N[C@@H](CCCNC(=N)N)C(=O)N[C@@H](CCCNC(=N)N)C(=O)N[C@@H](CCC(N)=O)C(=O)N[C@@H](CCCNC(=N)N)C(=O)N[C@@H](CCCNC(=N)N)C(=O)N[C@@H](CCCNC(=N)N)C(=O)NCC(N)=O)c1 [dTAT[Tb·L-^MeAr-NHSuc(−)]] (I: H-CK(X5)RKKRRQRRRG-NH2 / II: H-CK(X5)RKKRRQRRRG-NH2; disulfide I:1-II:1)	–	efficiently delivered to the cytosol	–	–
COc1ccc(-c2cc(CN3CCN(CC(=O)O)CCN(CC(=O)O)CCN(CC(=O)O)CC3)nc(C(=O)NCCCC[C@H](NC(=O)[C@@H](N)CSSC[C@H](N)C(=O)N[C@@H](CCCCNC(=O)c3cc(-c4ccc(OC)cc4C)cc(CN4CCN(CC(=O)O)CCN(CC(=O)O)CCN(CC(=O)O)CC4)n3)C(=O)N[C@@H](CCCNC(=N)N)C(=O)N[C@@H](CCCCN)C(=O)N[C@@H](CCCCN)C(=O)N[C@@H](CCCNC(=N)N)C(=O)N[C@@H](CCCNC(=N)N)C(=O)N[C@@H](CCC(N)=O)C(=O)N[C@@H](CCCNC(=N)N)C(=O)N[C@@H](CCCNC(=N)N)C(=O)N[C@@H](CCCNC(=N)N)C(=O)NCC(N)=O)C(=O)N[C@@H](CCCNC(=N)N)C(=O)N[C@@H](CCCCN)C(=O)N[C@@H](CCCCN)C(=O)N[C@@H](CCCNC(=N)N)C(=O)N[C@@H](CCCNC(=N)N)C(=O)N[C@@H](CCC(N)=O)C(=O)N[C@@H](CCCNC(=N)N)C(=O)N[C@@H](CCCNC(=N)N)C(=O)N[C@@H](CCCNC(=N)N)C(=O)NCC(N)=O)c2)c(C)c1 [dTAT[Tb·L-^MeAr-OMe]] (I: H-CK(X3)RKKRRQRRRG-NH2 / II: H-CK(X3)RKKRRQRRRG-NH2; disulfide I:1-II:1)	18 ± 3	successful cytosolic delivery	–	–
Cc1cc(NC(=O)CCN)ccc1-c1cc(CN2CCN(CC(=O)O)CCN(CC(=O)O)CCN(CC(=O)O)CC2)nc(C(=O)NCCCC[C@H](NC(=O)[C@@H](N)CSSC[C@H](N)C(=O)N[C@@H](CCCCNC(=O)c2cc(-c3ccc(NC(=O)CCN)cc3C)cc(CN3CCN(CC(=O)O)CCN(CC(=O)O)CCN(CC(=O)O)CC3)n2)C(=O)N[C@@H](CCCNC(=N)N)C(=O)N[C@@H](CCCCN)C(=O)N[C@@H](CCCCN)C(=O)N[C@@H](CCCNC(=N)N)C(=O)N[C@@H](CCCNC(=N)N)C(=O)N[C@@H](CCC(N)=O)C(=O)N[C@@H](CCCNC(=N)N)C(=O)N[C@@H](CCCNC(=N)N)C(=O)N[C@@H](CCCNC(=N)N)C(=O)NCC(N)=O)C(=O)N[C@@H](CCCNC(=N)N)C(=O)N[C@@H](CCCCN)C(=O)N[C@@H](CCCCN)C(=O)N[C@@H](CCCNC(=N)N)C(=O)N[C@@H](CCCNC(=N)N)C(=O)N[C@@H](CCC(N)=O)C(=O)N[C@@H](CCCNC(=N)N)C(=O)N[C@@H](CCCNC(=N)N)C(=O)N[C@@H](CCCNC(=N)N)C(=O)NCC(N)=O)c1 [dTAT[Tb·L-^MeAr-NHβAla(+)]] (I: H-CK(X4)RKKRRQRRRG-NH2 / II: H-CK(X4)RKKRRQRRRG-NH2; disulfide I:1-II:1)	–	efficiently delivered to the cytosol	co-internalized	–
CC(=O)Nc1ccc(-c2cc(CN3CCN(CC(=O)O)CCN(CC(=O)O)CCN(CC(=O)O)CC3)nc(C(=O)NCCCC[C@H](NC(=O)[C@@H](N)CSSC[C@H](N)C(=O)N[C@@H](CCCCNC(=O)c3cc(-c4ccc(NC(C)=O)cc4)cc(CN4CCN(CC(=O)O)CCN(CC(=O)O)CCN(CC(=O)O)CC4)n3)C(=O)N[C@@H](CCCNC(=N)N)C(=O)N[C@@H](CCCCN)C(=O)N[C@@H](CCCCN)C(=O)N[C@@H](CCCNC(=N)N)C(=O)N[C@@H](CCCNC(=N)N)C(=O)N[C@@H](CCC(N)=O)C(=O)N[C@@H](CCCNC(=N)N)C(=O)N[C@@H](CCCNC(=N)N)C(=O)N[C@@H](CCCNC(=N)N)C(=O)NCC(N)=O)C(=O)N[C@@H](CCCNC(=N)N)C(=O)N[C@@H](CCCCN)C(=O)N[C@@H](CCCCN)C(=O)N[C@@H](CCCNC(=N)N)C(=O)N[C@@H](CCCNC(=N)N)C(=O)N[C@@H](CCC(N)=O)C(=O)N[C@@H](CCCNC(=N)N)C(=O)N[C@@H](CCCNC(=N)N)C(=O)N[C@@H](CCCNC(=N)N)C(=O)NCC(N)=O)c2)cc1 [dTAT[Eu·L-Ar-NHAc]] (I: H-CK(X1)RKKRRQRRRG-NH2 / II: H-CK(X1)RKKRRQRRRG-NH2; disulfide I:1-II:1; N-terminus assumed)	–	cytosolic delivery	co-internalized	cytosolic delivery (diffuse Eu3+ localization) (MRC5 cells): successful cytosolic delivery; cytosolic delivery (diffuse Eu3+ localization) (HEK293T cells): successful cytosolic delivery; toxicity at the concentration used for 2PM (HeLa cells [1]; MTT assay, 10 μM): no toxicity; number of cells showing cytosolic staining (diffuse Eu3+ emission) (HeLa cells [2]; HeLa cells, 5 μM, 1 h incubation, over 6 hours after washing, determined visually): 34–38%; cell staining pattern at low concentration (HeLa cells [2]; live HeLa cells, 2.5 μM, 1 h incubation): only show punctate Eu^3+ around the nucleus

— article PMC11206396 (Chemical Science, 2024)
